# Assay results as given in patent publication US8420696B2, “Use of low-dose ladostigil for neuroprotection” (priority 2005, dated 2013).
# Key:
# MAO-A = experiment: In vivo MAO inhibition assay (MAO-A); design: species or system Rats and mice
# Procedure: (§1) The level of MAO (MAO-A and MAO-B) inhibition can be determined by routine methods, including those detailed below.
# (§2) Rats and mice are treated by subcutaneous (s.c.) or intraperitoneal (i.p.) injection or oral (p.o.) administration of the compound to be tested. Animals are decapitated approximately 2 hours after drug treatment and MAO activity is determined in the brain, intestine, and/or liver. MAO activity is expressed as percentage of enzyme activity relative to a control group administered with vehicle only. Effective doses producing 50% MAO inhibition (ED50 values) are calculated from inhibition curves.
# (§3) Repeated treatment by ladostigil (e.g. daily doses for 7 days) can be used to calculate inhibition achieved through chronic administration.
# MAO-B = experiment: In vivo MAO inhibition assay (MAO-B); design: species or system Rats and mice
# Procedure: as §1, §2, §3
# ChE = experiment: In vivo ChE inhibition assay; design: species or system cynomolgus monkeys; conditions: acute or chronic administration, amounts up to 7.0 mg/kg ladostigil base
# Procedure: The level of ChE inhibition can be determined by routine methods, including those detailed below.
# In vivo measurement of ChE inhibition is similar to that of in vivo measurement of MAO inhibition, except that cynomolgus monkeys are treated, and tissues are examined for brain, plasma and erythrocytes ChE inhibition.
# [1] = system: memory deficits after icv injections of STZ; conditions: chronic treatment; cited from earlier work
# [2] = system: rats injected icv with Aβ(1-40); conditions: cited from earlier work
# [3] = acute administration, amounts up to 20.4 mg/kg of ladostigil base
# [4] = chronic administration, amounts up to 4.5 mg/kg of ladostigil base
compound,measurement,setting,value
"R(+)-6-(N-methyl,N-ethyl-carbamoyloxy)-N′-propargyl-1-aminoindan [ladostigil tartrate]",MAO inhibition (MAO-A),MAO-A; [3],no more than 25%
same,MAO inhibition (MAO-A),MAO-A; [4],no more than 25%
same,MAO inhibition (MAO-B),MAO-B; [3],no more than 25%
same,MAO inhibition (MAO-B),MAO-B; [4],no more than 25%
same,ChE inhibition,ChE,no more than 30%
COc1ccc2[nH]cc(CCNC(C)=O)c2c1 [melatonin],Memory deficits 3-8 weeks after icv STZ,[1],can be reduced
Oc1ccc(C=Cc2cc(O)cc(O)c2)cc1 [resveratrol],Memory deficits 3-8 weeks after icv STZ,[1],can be reduced
CC12CC3CC(C)(C1)CC(N)(C3)C2 [memantine],Activation of microglia and astrocytes and memory deficits after icv Aβ(1-40),[2],reduced the activation of microglia and astrocytes and the memory deficits
